{"source": "patent US7429564B2", "about": "“Oral insulin therapy” (Emisphere Technologies, Inc., priority 2002, dated 2008)", "assay": "Delivery agent plasma concentrations in humans after oral delivery agent capsules", "assay_type": "in vivo, human", "method": "Delivery agents 1-3 were investigated for their ability to penetrate the GI mucosa. The plasma concentration of each delivery agent was measured in human subjects after oral administration of delivery agent loaded capsules as a measure of each delivery agent's penetration efficiency.\nBlood sampling for plasma delivery agent concentration determination (2 mL in sodium heparin tube) were drawn 15 minutes before dosing, and at 5, 10, 15, 30, and 45 minutes and 1, 1.5, 2, 3, 4, 6, 8, and 12 hours post-dose (14 samples per treatment) for delivery agent measurements in all treatment groups.\nTwo 18-gauge IV lines were situated prior to dosing; one for blood sampling, and the other for potential infusion of 20% glucose for subjects in groups 2 and 3. The subjects in group 1 only had one cannula inserted. The blood samples were centrifuged at 3000 rpm for a period of fifteen minutes at a temperature from about 2° C. to 8° C., within one hour of sample collection. Using a plastic pipette and without disturbing the red cell layer, the plasma from the collection tube was pipetted in duplicate for each analysis, blood glucose, Human Insulin, C-peptide, delivery agent into pre-labeled polypropylene tubes. The samples were stored at −70° C. until analysis.\nThe indicated doses were ingested by healthy human volunteers and the plasma concentrations of the delivery agents were monitored over time and the area under the curve (AUC) calculated. […] Similarly, oral administration of 800 mg of delivery agent number 3 produced more than a 23 fold greater penetration of the GI mucosa in humans than did oral administration of 750 mg of delivery agent 2 having n equal to 9 alkyl."}
{"smiles": "O=C(O)CCCNC(=O)c1ccc(Cl)cc1O", "note": "[4-CNAB, 4-[(4-chloro, 2-hydroxybenzoyl)amino]butanoic acid]", "values": [{"measurement": "Fold greater penetration of the GI mucosa vs delivery agent 1", "setting": "humans, 800 mg vs 750 mg oral", "value": "approximately 13.5 fold"}, {"measurement": "Fold greater penetration of the GI mucosa vs delivery agent 2", "setting": "humans, 800 mg vs 750 mg oral", "value": "> 23", "unit": "fold"}, {"measurement": "AUC", "setting": "plasma, oral capsules, 800 mg, healthy human volunteers", "value": 47500, "unit": "ng·h/mL"}]}
